Data published in a melting point compilation (Tetko et al.).

| SMILES | melting point [°C] |
| --- | --- |
| CC(=O)NC12CC3CC(C1)CC(C(=O)O)(C3)C2 | 258 to 260 |
| COc1cc(-c2nc(CCl)cs2)ccc1O | 86 to 88 |
| CC(C(=O)O)n1cc(Cl)cn1 (stereo not drawn) | 56 to 59 |
| CCOC(=O)c1cc(N)cc(S(C)(=O)=O)c1 | 190 to 192 |
| CC(Cl)C(=O)Nc1nc2ccc(F)cc2s1 (stereo not drawn) | 126 to 128 |
| NC(=S)CN1C(=O)c2ccccc2C1=O | 173 to 175 |
| CC(C)c1ccc(C2(C(=O)O)CCC2)cc1 | 119 to 121 |
| CCOC(=O)c1c(N)sc(C(=O)OC)c1CC(=O)OC | 168 to 170 |
| COc1ccc(C=NO)cc1 | 64 to 66 |
| COc1ccc(C2(C(=O)O)CCOCC2)cc1 | 167 to 169 |
| O=C1NC(=O)C(CCSSCCC2NC(=O)NC2=O)N1 (stereo not drawn) | 236 to 238 |
| CC(=O)C(CN1C(=O)c2ccccc2C1=O)C(C)=O | 169 to 171 |
| CN1C(=O)/C(=N\NC(=O)c2cccnc2)c2ccccc21 | 195 to 197 |
| O=S1(=O)NC=Nc2ccccc21 | 222 to 224 |
| ICc1cccc2cccnc12 | 79 to 81 |
| NS(=O)(=O)N1CCC(C(=O)O)CC1 | 177 to 179 |
| Nc1nn2cc(-c3ccccc3)nc2s1 | 183 to 185 |
| O=C(O)c1cccnc1Nc1cc(F)ccc1F | 248 to 250 |
| Cc1ccc(S(=O)(=O)N2CCCCC2C(=O)O)cc1 (stereo not drawn) | 100 to 102 |
| COc1ccc(COc2cc(Br)ccc2C(F)(F)F)cc1 | 32 to 34 |
| CC(C)Cn1ncc2cc(C(=O)O)cnc21 | 175 to 177 |
| O=C(O)c1ccc(OCC(F)F)nc1 | 158 to 160 |
| COC(=O)Cn1ncc2c(Cl)ncnc21 | 66 to 68 |
| CCOc1ccc2c(c1)CC(C(=O)O)CO2 (stereo not drawn) | 132 to 134 |
| CSc1ccc(C)c(C(=O)O)c1 | 128 to 130 |
| COC(=O)c1ccc(Cl)c(N)c1 | 81 to 83 |

| SMILES | melting point [°C] |
| --- | --- |
| NC(=O)C1CCC(C(=O)O)CC1 (stereo not drawn) | 205 to 207 |
| Cc1cc(Br)ncc1[N+](=O)[O-] | 64 to 66 |
| CC(C)(C)OC(=O)N1CCCC(C#N)C1 (stereo not drawn) | 64 to 66 |
| NS(=O)(=O)NCC1CCCNC1 (stereo not drawn) | 132 to 134 |
| O=C(O)c1cnc(-c2ccncc2)s1 | 307 to 309 |
| O=C(O)C1CC2COCC(C1)C2=O (stereo not drawn) | 196 to 198 |
| O=[N+]([O-])c1ccc(S(=O)(=O)CCO)cc1 | 128 to 130 |
| CCNC(=O)NCCO | 53 to 55 |
| CC(C)C(Br)C(=O)NC1CCCCCC1 (stereo not drawn) | 119 to 121 |
| CNC(=O)C1CN(Cc2ccccc2)CCO1 (stereo not drawn) | 113 to 115 |
| COc1ccc(NC(=O)CCCl)c([N+](=O)[O-])c1 | 97 to 99 |
| O=C(O)C(=Cc1ccc(Br)cc1)c1cccs1 | 199 to 200 |
| CC(C)(C)n1[nH]c(-c2ccccc2)cc1=N | 103 to 105 |
| Nc1ccc(Cn2cnc3ccccc32)cc1 | 177 to 179 |
| CC(=O)c1ccc2cccc3c2c1CC3 | 104 to 106 |
| O=C(O)C(=O)NCc1ccc(F)cc1 | 134 to 136 |
| COC(=O)CCc1c(C)nn(-c2ccc(C(=O)O)cc2)c1C | 166 to 175 |
| Cc1ccc(S(=O)(=O)N2CCC(C(=O)O)CC2)c(C)c1 | 200 to 202 |
| O=C(Cc1cccc(F)c1)c1ccc(Cl)c(Cl)c1 | 121 to 123 |
| O=C(O)CCCOc1ccccc1Cl | 84 to 86 |
| CNc1cc(NC)c([N+](=O)[O-])cc1F | 185 to 187 |
| Nc1cc(Cl)ccc1C(=O)N1CCCCC1CCO (stereo not drawn) | 115 to 117 |
| CCCC(C)S(N)(=O)=O (stereo not drawn) | 48 to 50 |
| CCc1cc2c(=O)n(N)cnc2s1 | 137 to 139 |
| Cc1nn(CCO)c2nc(C3CC3)cc(C(=O)O)c12 | 184 to 186 |
| CCOc1ccc(-c2nnc(N)o2)cc1 | 238 to 240 |

| SMILES | melting point [°C] |
| --- | --- |
| Nc1ccn(-c2nccs2)n1 | 99 to 101 |
| CC1(c2ccsc2)CC(=O)NC1=O (stereo not drawn) | 96 to 98 |
| CC(C)(C)C(=O)C=Cc1ccc(Br)s1 | 44 to 46 |
| Cc1cc(C(=O)O)c2c(C(C)C)noc2n1 | 202 to 204 |
| Cc1cccc(OC(C)C(=O)O)c1 (stereo not drawn) | 85 to 87 |
| CCOC(=O)/C(C#N)=C\Nc1ccc(Cl)cc1 | 141 to 143 |
| O=C(O)C1(N2CCOCC2)CCC1 | 209 to 211 |
| Cc1cc(S(=O)(=O)Cl)ccc1-n1cnnn1 | 134 to 136 |
| NC(=O)c1sc2ccccc2c1N | 217 to 219 |
| O=C1CCc2c(F)cc(Br)cc21 | 114 to 116 |
| O=C(O)c1ccc(N2C(=O)CSC2=S)cc1 | 281 to 283 |
| N#Cc1cccc(Oc2ccc(N)cn2)c1 | 104 to 106 |
| O=c1[nH]c(-c2ccncc2)cs1 | 303 to 305 |
| CCNC(=O)N1CCc2ccc(N)cc21 | 134 to 136 |
| CC1CN(Cc2ccc(C(=O)O)cc2)CCO1 (stereo not drawn) | 186 to 188 |
| Cc1cc(Cn2cc(Br)cn2)oc1C(=O)O | 122 to 124 |
| CC(C)(C)c1noc(-c2cc(Cl)ccc2N)n1 | 132 to 134 |
| Cc1ncsc1-c1nc(CN)no1 | 159 to 161 |
| O=C(O)CCCCCc1cccs1 | 43 to 45 |
| O=C(O)c1cc2ccccc2cc1I | 215 to 217 |
| COC(=O)c1cccc(C(N)=NO)c1 | 102 to 104 |
| O=C1OC(=O)c2cc(F)c(F)cc21 | 94 to 96 |
| N#Cc1ccc(F)c(CO)c1 | 48 to 50 |
| c1ccc2c(c1)CC(n1cccn1)CN2 (stereo not drawn) | 102 to 104 |
| ClCc1nc2cc(Cl)ccc2n1Cc1ccccc1 | 105 to 115 |
| COC(=O)CCCc1csc(N)n1 | 69 to 71 |

| SMILES | melting point [°C] |
| --- | --- |
| Cc1nc(C(=O)O)c2n1CCCC2 | 225 to 227 |
| Cc1nn(-c2cccc(Cl)c2)c2ncc(Br)cc12 | 114 to 116 |
| O=C(N=C=S)c1ccc(Cl)c(Cl)c1 | 49 to 51 |
| CNCc1nc2ccccc2s1 | 30 to 34 |
| CON=Cc1ccc(C(=O)O)cc1 | 183 to 185 |
| Cc1cccc(-n2c(=O)[nH]c3cc(C(=O)O)ccc3c2=O)c1 | 344 to 346 |
| CC1(c2ccc(Br)s2)NC(=O)NC1=O (stereo not drawn) | 184 to 186 |
| Cc1nn(C)c(C(F)(F)F)c1C(=O)O | 213 to 215 |
| Cc1c(Cl)cccc1-n1ccnc1SCC(=O)O | 144 to 146 |
| Nc1nc(N)nc(CCl)n1 | 221 to 223 |
| Cc1oc(C(=O)O)cc1S(=O)(=O)N(C)C | 151 to 153 |
| O=C(O)CSCC(=O)N1CCCCC1 | 91 to 93 |
| O=C(O)c1sc(C2CC2)nc1C(F)(F)F | 146 to 148 |
| Fc1ccc(-c2cncc(Cl)n2)cc1 | 95 to 97 |
| COc1ccc2[nH]c3c(c2c1)C(=O)CCC3 | 269 to 271 |
| O=C(O)Cn1nc(-c2cccs2)oc1=O | 176 to 178 |
| CC(O)c1ccc(-n2cncn2)cc1 (stereo not drawn) | 90 to 92 |
| Sc1nc(-c2ccccn2)no1 | 146 to 148 |
| CN(C)C(C#N)c1cc[nH]c1 (stereo not drawn) | 71 to 73 |
| CCN1CCN(c2ccccc2N)CC1 | 39 to 43 |
| Cc1cc(COc2ccc(C(=O)O)cc2Br)no1 | 200 to 202 |
| OCCCOc1ccc(Br)cc1 | 34 to 36 |
| O=C(Nc1cccc(Cn2cccnc2=O)c1)OCC(F)(F)F | 173 to 175 |
| O=C(O)Cn1ncc(=O)c2ccccc21 | 120 to 122 |
| O=S(=O)(Cl)c1c(Cl)cc(F)cc1Br | 55 to 57 |
